Assays:
[1] = target: T1, 20S Human Erythrocyte Proteasome (HEP) (Homo sapiens, UniProt P20618+P28074); test: Chymotrypsin-like activity of 20S Human Erythrocyte Proteasome (HEP), IC50 determination; type: biochemical; conditions: assay of Example C, inhibition of HEP
T1 construct: 20S Human Erythrocyte Proteasome (HEP), purchased from Immatics Biotechnologies Inc; purchased Immatics Biotechnologies Inc., Tübingen, Germany; host or cells: human erythrocytes (natural source)
In short: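 20S proteasome at 0.2 μg/mL (about 0.6 nM catalytic sites) in 20 mM Tris with 0.04% SDS, preincubated 15 min at 37° C with inhibitor before Suc-LLVY-AMC (100 μM final). AMC fluorescence read in the linear range; triplicates, IC50 from concentration series.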

[2] = target: T2, proteasome in Molt-4 cells (human leukemia) (Homo sapiens, UniProt P20618+P28074); type: cell-based; conditions: assay of Example E, inhibition of MOLT4; read-out: MOLT4 (EC50)
T2 sequence (P28074 60-263): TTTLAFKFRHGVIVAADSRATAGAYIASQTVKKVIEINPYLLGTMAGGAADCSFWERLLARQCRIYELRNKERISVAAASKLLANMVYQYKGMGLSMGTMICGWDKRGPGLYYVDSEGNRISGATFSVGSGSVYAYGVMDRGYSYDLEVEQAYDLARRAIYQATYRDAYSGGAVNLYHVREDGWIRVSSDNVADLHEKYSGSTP
T2 sequence (P20618 29-241): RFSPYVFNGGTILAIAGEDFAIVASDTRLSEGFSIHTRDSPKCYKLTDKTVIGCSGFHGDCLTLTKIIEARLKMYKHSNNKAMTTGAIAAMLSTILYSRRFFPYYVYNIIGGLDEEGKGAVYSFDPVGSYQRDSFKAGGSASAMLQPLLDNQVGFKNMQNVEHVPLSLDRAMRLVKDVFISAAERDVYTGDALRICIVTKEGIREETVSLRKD
Method: Cellular Assay for Chymotrypsin-like activity of Proteasome in Molt-4 Cell Line
The chymotrypsin-like activity of proteasome in Molt-4 cells (human leukemia) was assayed according to the following procedure. A brief description of the method was published previously (Harding et al., J. Immunol., 1995, 155, 1767).
Molt-4 cells were washed and resuspended in HEPES-buffered Saline (5.4 mM KCl, 120 mM NaCl, 25 mM Glucose, 1.5 mM MgSO4, 1 mM Na pyruvate, 20 mM Hepes) and plated in 96-well microtiter white plates to a final concentration of 6×10^6 cells/mL. Then various 5× proteasome inhibitor concentrations (or diluted DMSO for controls), prepared from 250×DMSO solutions by diluting 50-fold using HEPES-buffered saline, were added to the plate to a final 1× concentration. After 15 minutes incubation at 37° C., a fluorimetric cell permeable substrate (MeOSuc-FLF-AFC) (methoxysuccinyl-Phe-Leu-Phe-7-amido-4-trifluoromethylcoumarin) purchased from Enzyme Systems Products, catalogue number AFC-88, was added to each well at a final concentration of 25 μM from a stock solution of 20 mM in DMSO. Reaction volumes were 100 μl per well.
The concentration of free AFC was monitored every 1.5 min for 30 min ([…]) on a Polastar Optima, BMG Labtechnologies microplate reader, using an excitation wavelength of 390 nm and emission wavelength of 520 nm. Proteasome activity was determined under conditions in which substrate hydrolysis increased linearly with time and the change in fluorescent signal was proportional to the concentration of free AFC.
Determination of EC50 Values for Proteasome Inhibitors in MOLT-4 Cell Line
Inhibition of chymotrypsin-like activity of proteasome in Molt-4 cells was determined by incubating cells with various concentrations of putative inhibitors for 15 minutes at 37° C. prior to the addition of substrate. Each experimental condition was evaluated in triplicate, and replicate experiments were performed for the inhibitors described herein.

**Q.** Which results are given for CCCCOCC(=O)N[C@@H](CCCNC(=N)N[N+](=O)[O-])C(=O)N[C@@H](CC(C)C)B1O[C@@H]2C[C@@H]3C[C@@H](C3(C)C)[C@]2(C)O1 [D.2.3, 2-Butoxyacetamide,N-[(1S)-1-[[[(1R)-1-[(3aS,4S,6S,7aR)-hexahydro-3a,5,5-trimethyl-4,6-methano-1,3,2-benzodioxaborol-2-yl]-3-methylbutyl]amino]carbonyl]-4-[[imino(nitroamino)methyl]amino]butyl]]?
**A.** IC50 [1]: < 10 nM; EC50 [2]: < 200 nM

**Q.** For CC(C)C[C@H](NC(=O)[C@H](CCCNC(=N)N[N+](=O)[O-])NC(=O)CCCCCCCCCCCNC(=O)OC(C)(C)C)B1O[C@@H]2C[C@@H]3C[C@@H](C3(C)C)[C@]2(C)O1 [D.2.4, 12-[(1,1-dimethylethoxy)carbonylamino] dodecanamide,N-[(1S)-1-[[[(1R)-1-[(3aS,4S,6S,7aR)-hexahydro-3a,5,5-trimethyl-4,6-methano-1,3,2-benzodioxaborol-2-yl]-3-methylbutyl]amino]carbonyl]-4-[[imino(nitroamino)methyl]amino]butyl]-], which IC50 [1] is on record?
**A.** < 10 nM

**Q.** What about the EC50 [2] of the same compound?
**A.** < 200 nM

**Q.** COC(=O)CCCCCCC(=O)N[C@@H](CCCNC(=N)N[N+](=O)[O-])C(=O)N[C@@H](CC(C)C)B1O[C@@H]2C[C@@H]3C[C@@H](C3(C)C)[C@]2(C)O1 [D.2.5] was tested. Which IC50 [1] did it give?
**A.** < 10 nM

**Q.** And the EC50 [2]?
**A.** 200 to 2000 nM

**Q.** How did the IC50 [1] turn out when COCCOCC(=O)NCC(=O)N[C@@H](CCCNC(=N)N[N+](=O)[O-])C(=O)N[C@@H](CC(C)C)B1O[C@@H]2C[C@@H]3C[C@@H](C3(C)C)[C@]2(C)O1 [D.2.6] was run?
**A.** < 100 nM

**Q.** And the EC50 [2]?
**A.** 2000 to 10000 nM

**Q.** With CCCCCCCCCC(=O)NCC(=O)N[C@@H](CC(C)C)B1O[C@@H]2C[C@@H]3C[C@@H](C3(C)C)[C@]2(C)O1 [D.2.7, Decanamide,N-[1-[[[(1R)-1-[(3aS,4S,6S,7aR)-hexahydro-3a,5,5-trimethyl-4,6-methano-1,3,2-benzodioxaborol-2-yl]-3-methylbutyl]amino]carbonyl]methyl]] as the compound, how does the IC50 [1] read?
**A.** < 10 nM

**Q.** What about the EC50 [2] of the same compound?
**A.** < 200 nM

**Q.** What does the source list for COCCOCCOCC(=O)NCC(=O)N[C@@H](CC(C)C)B1O[C@@H]2C[C@@H]3C[C@@H](C3(C)C)[C@]2(C)O1 [D.2.8, 2-[2-(2-methoxyethoxy)ethoxy]acetamide,N-[1-[[[(1R)-1-[(3aS,4S,6S,7aR)-hexahydro-3a,5,5-trimethyl-4,6-methano-1,3,2-benzodioxaborol-2-yl]-3-methylbutyl]amino]carbonyl]methyl]]?
**A.** IC50 [1]: < 100 nM; EC50 [2]: < 200 nM

**Q.** Which results are given for CCCCCCCCCC(=O)N[C@@H](CCCNC(=N)N[N+](=O)[O-])C(=O)N[C@@H](CC(C)C)B1O[C@@H]2C[C@@H]3C[C@@H](C3(C)C)[C@]2(C)O1 [D.3.1, Decanamide,N-[(1S)-1-[[[(1R)-1-[(3aS,4S,6S,7aR)-hexahydro-3a,5,5-trimethyl-4,6-methano-1,3,2-benzodioxaborol-2-yl]-3-methylbutyl]amino]carbonyl]-4-[[imino(nitroamino)methyl]amino]butyl]]?
**A.** IC50 [1]: < 10 nM; EC50 [2]: < 200 nM

**Q.** How did the IC50 [1] turn out when CC(C)C[C@H](NC(=O)[C@H](CCCNC(=N)N[N+](=O)[O-])NC(=O)c1cccc2ccccc12)B1O[C@@H]2C[C@@H]3C[C@@H](C3(C)C)[C@]2(C)O1 [D.3.2, Naphthalen-1-carboxamide,N-[(1S)-1-[[[(1R)-1-[(3aS,4S,6S,7aR)-hexahydro-3a,5,5-trimethyl-4,6-methano-1,3,2-benzodioxaborol-2-yl]-3-methylbutyl]amino]carbonyl]-4-[[imino(nitroamino)methyl]amino]butyl]] was run?
**A.** < 10 nM

**Q.** And the EC50 [2]?
**A.** < 200 nM

**Q.** Which results are given for CC(C)C[C@H](NC(=O)[C@H](CCCNC(=N)N[N+](=O)[O-])NC(=O)Cc1ccccc1)B1O[C@@H]2C[C@@H]3C[C@@H](C3(C)C)[C@]2(C)O1 [D.3.3]?
**A.** IC50 [1]: < 10 nM; EC50 [2]: 200 to 2000 nM

**Q.** Which results are given for CCCCCCCCCCCC(=O)N[C@@H](CCCNC(=N)N[N+](=O)[O-])C(=O)N[C@@H](CC(C)C)B1O[C@@H]2C[C@@H]3C[C@@H](C3(C)C)[C@]2(C)O1 [D.3.7, Dodecanamide,N-[(1S)-1-[[[(1R)-1-[(3aS,4S,6S,7aR)-hexahydro-3a,5,5-trimethyl-4,6-methano-1,3,2-benzodioxaborol-2-yl]-3-methylbutyl]amino]carbonyl]-4-[[imino(nitroamino)methyl]amino]butyl]]?
**A.** IC50 [1]: < 10 nM; EC50 [2]: < 200 nM

**Q.** Which IC50 [1] does the source give for CCCCCCCC(=O)N[C@@H](CCCNC(=N)N[N+](=O)[O-])C(=O)N[C@@H](CC(C)C)B1O[C@@H]2C[C@@H]3C[C@@H](C3(C)C)[C@]2(C)O1 [D.3.8, Octanamide,N-[(1S)-1-[[[(1R)-1-[(3aS,4S,6S,7aR)-hexahydro-3a,5,5-trimethyl-4,6-methano-1,3,2-benzodioxaborol-2-yl]-3-methylbutyl]amino]carbonyl]-4-[[imino(nitroamino)methyl]amino]butyl]] here?
**A.** < 10 nM

**Q.** What about the EC50 [2] of the same compound?
**A.** < 200 nM

**Q.** How did the IC50 [1] turn out when CCCCC[C@H]1CC[C@H](C(=O)N[C@@H](CCCNC(=N)N[N+](=O)[O-])C(=O)N[C@@H](CC(C)C)B2O[C@@H]3C[C@@H]4C[C@@H](C4(C)C)[C@]3(C)O2)CC1 [D.3.11, trans-4-Pentylcyclohexanecarboxamide, N-[(1S)-1-[[[(1R)-1-[(3aS,4S,6S,7aR)-hexahydro-3a,5,5-trimethyl-4,6-methano-1,3,2-benzodioxaborol-2-yl]-3-methylbutyl]amino]carbonyl]-4-[[imino(nitroamino)methyl]amino]butyl]] was run?
**A.** < 10 nM

**Q.** And the EC50 [2]?
**A.** < 200 nM

**Q.** For CC(C)C[C@H](NC(=O)[C@H](CCCNC(=N)N[N+](=O)[O-])NC(=O)CCCc1ccccc1)B1O[C@@H]2C[C@@H]3C[C@@H](C3(C)C)[C@]2(C)O1 [D.3.12, 4-Phenylbutanamide,N-[(1S)-1-[[[(1R)-1-[(3aS,4S,6S,7aR)-hexahydro-3a,5,5-trimethyl-4,6-methano-1,3,2-benzodioxaborol-2-yl]-3-methylbutyl]amino]carbonyl]-4-[[imino(nitroamino)methyl]amino]butyl]], which IC50 [1] is on record?
**A.** < 10 nM

**Q.** What about the EC50 [2] of the same compound?
**A.** < 200 nM

**Q.** What does the source list for CCCCCCCCC(=O)N[C@@H](CCCNC(=N)N[N+](=O)[O-])C(=O)N[C@@H](CC(C)C)B1O[C@@H]2C[C@@H]3C[C@@H](C3(C)C)[C@]2(C)O1 [D.3.15, Nonanamide,N-[(1S)-1-[[[(1R)-1-[(3aS,4S,6S,7aR)-hexahydro-3a,5,5-trimethyl-4,6-methano-1,3,2-benzodioxaborol-2-yl]-3-methylbutyl]amino]carbonyl]-4-[[imino(nitroamino)methyl]amino]butyl]]?
**A.** IC50 [1]: < 10 nM; EC50 [2]: < 200 nM

**Q.** Which results are given for CC(C)C[C@H](NC(=O)[C@H](CCCNC(=N)N[N+](=O)[O-])NC(=O)c1ccc(Br)cc1)B1O[C@@H]2C[C@@H]3C[C@@H](C3(C)C)[C@]2(C)O1 [D.3.24, 4-Bromobenzamide,N-[(1S)-1-[[[(1R)-1-[(3aS,4S,6S,7aR)-hexahydro-3a,5,5-trimethyl-4,6-methano-1,3,2-benzodioxaborol-2-yl]-3-methylbutyl]amino]carbonyl]-4-[[imino(nitroamino)methyl]amino]butyl]]?
**A.** IC50 [1]: < 10 nM; EC50 [2]: < 200 nM

**Q.** What does the source list for C/C(=C\c1ccccc1)C(=O)N[C@@H](CCCNC(=N)N[N+](=O)[O-])C(=O)N[C@@H](CC(C)C)B1O[C@@H]2C[C@@H]3C[C@@H](C3(C)C)[C@]2(C)O1 [D.3.26, (E)-2-Methyl-3-phenyl-acrylamide,N-[(1S)-1-[[[(1R)-1-[(3aS,4S,6S,7aR)-hexahydro-3a,5,5-trimethyl-4,6-methano-1,3,2-benzodioxaborol-2-yl]-3-methylbutyl]amino]carbonyl]-4-[[imino(nitroamino)methyl]amino]butyl]]?
**A.** IC50 [1]: < 10 nM; EC50 [2]: < 200 nM
